From publication PMC3909768 (Journal of Cancer, 2014)

Assays:
CYP 1A2 = target: T1, CYP 1A2 (Homo sapiens, UniProt P05177); assay: CYP inhibition; format: in vitro ADME; details: concentrations up to 10 uM
T1 sequence (P05177 1-516): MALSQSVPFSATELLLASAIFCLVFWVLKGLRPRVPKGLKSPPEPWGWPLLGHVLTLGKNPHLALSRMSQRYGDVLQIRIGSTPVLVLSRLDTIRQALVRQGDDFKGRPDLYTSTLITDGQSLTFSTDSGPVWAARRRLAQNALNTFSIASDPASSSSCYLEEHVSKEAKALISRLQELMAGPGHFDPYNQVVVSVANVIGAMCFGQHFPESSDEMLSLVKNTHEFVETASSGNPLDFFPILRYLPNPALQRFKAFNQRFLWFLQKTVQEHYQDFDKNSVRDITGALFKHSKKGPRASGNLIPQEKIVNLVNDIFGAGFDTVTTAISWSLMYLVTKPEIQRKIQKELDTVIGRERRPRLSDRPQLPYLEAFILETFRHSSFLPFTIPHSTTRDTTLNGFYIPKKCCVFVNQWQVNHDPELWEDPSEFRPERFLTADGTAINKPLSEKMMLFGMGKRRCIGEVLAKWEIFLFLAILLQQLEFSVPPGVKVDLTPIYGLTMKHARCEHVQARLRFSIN

[1] = test system: spermatozoon in epididymis; assay: Concentration of spermatozoon in epididymis of rats, 60 days; format: in vivo, male rats; details: n=6
[2] = Plasma protein binding by equilibrium dialysis, human; format: in vitro ADME; details: 1 uM, equilibrium dialysis 4h 37C

CNC(=O)c1ccc(N2C(=S)N(c3ccc(C#N)c(C(F)(F)F)c3)C(=O)[C@]23CCOC3)cc1F [ONC1-13B, 4-[(R)-3-(4-Cyano-3-trifluoromethyl-phenyl)-4-oxo-2-thioxo-7-oxa-1,3-diaza-spiro[4.4]non-1-yl]-2-fluoro-N-methyl-benzamide]
inhibition of CYP 1A2 activity (CYP 1A2): doesn`t inhibit | Concentration of spermatozoon in epididymis, M±m ([1]; 30 mg/kg po): 29,00 ± 2,73 х 10^6/ml | Concentration of spermatozoon in epididymis, M±m ([1]; 300 mg/kg po): 16,00 ± 2,37 х 10^6/ml | Bound fraction [2]: 89.3%
